From ChEMBL document CHEMBL1154844, “An antimycobacterial cyclodepsipeptide from the entomopathogenic fungus Ophiocordyceps communis BCC 16475” (J Nat Prod, 2010)
In brackets after ≈: the same amount, converted by molar mass. Activity calls are given as the source filed them. The calls are words filed in the database; no cut-off is given here.

Assays:
[1] = system: Bipolaris oryzae; assay: Antifungal activity against Cochliobolus miyabeanus; assay type: functional
[2] = system: Monilinia mali (Monilinia mali); assay: Antifungal activity against Monilinia mali
[3] = system: Venturia inaequalis; assay: Antifungal activity against Venturia inaequalis; assay type: functional
[4] = system: KB; assay: Cytotoxicity against human KB cells at 178 uM by resazurin microplate assay; assay type: functional, cell-based
[5] = system: Pyricularia grisea; assay: Antifungal activity against Magnaporthe grisea; assay type: functional, organism-based
[6] = system: NCI-H187; assay: Cytotoxicity against human NCI-H187 cells at 88 uM by resazurin microplate assay; assay type: functional, cell-based
[7] = system: Vero; assay: Cytotoxicity against african green monkey Vero cells at 88 uM by Green fluorescent protein microplate assay; assay type: cell-based; details: chlorocebus sabaeus
[8] = system: Candida albicans; assay: Antifungal activity against Candida albicans; assay type: functional, organism-based
[9] = system: Vero; assay: Cytotoxicity against african green monkey Vero cells at 178 uM by Green fluorescent protein microplate assay; assay type: cell-based; details: chlorocebus sabaeus
[10] = system: Plasmodium falciparum; assay: Antimalarial activity against Plasmodium falciparum K1; assay type: functional, organism-based
[11] = system: MCF7; assay: Cytotoxicity against human MCF7 cells at 88 uM by resazurin microplate assay; assay type: functional, cell-based
[12] = system: NCI-H187; assay: Cytotoxicity against human NCI-H187 cells at 178 uM by resazurin microplate assay; assay type: functional, cell-based
[13] = system: MCF7; assay: Cytotoxicity against human MCF7 cells by resazurin microplate assay; assay type: functional, cell-based
[14] = system: Mycobacterium tuberculosis; assay: Antibacterial activity against Mycobacterium tuberculosis H37Ra by Green fluorescent protein microplate assay; assay type: functional
[15] = system: KB; assay: Cytotoxicity against human KB cells by resazurin microplate assay; assay type: functional, cell-based

Question: CCCCCCCCCC[C@@H](C)[C@@H]1CC(=O)N[C@H]([C@@H](C)O)C(=O)N[C@@H](C)C(=O)N[C@H](C)C(=O)N[C@@H](CCC(N)=O)C(=O)N[C@H](Cc2ccc(O)cc2)C(=O)N[C@@H]([C@@H](C)CC)C(=O)O1 was tested. Which MIC [1] did it give?
Answer: 1 µg/mL (≈ 1.13 µM)

Question: What about the MIC [2] of the same compound?
Answer: 1 µg/mL (≈ 1.13 µM)

Question: What about the MIC [3] of the same compound?
Answer: 1 µg/mL (≈ 1.13 µM)

Question: Which MIC [1] does the source give for CCCCCCCCCC[C@@H](C)[C@@H]1CC(=O)N[C@H]([C@@H](C)O)C(=O)N[C@@H](C)C(=O)N[C@H](C)C(=O)N[C@@H](CCC(N)=O)C(=O)N[C@H](Cc2ccc(O)cc2)C(=O)N[C@@H](C(C)C)C(=O)O1 [WA 493 A] here?
Answer: 1 µg/mL (≈ 1.14 µM)

Question: What about the MIC [2] of the same compound?
Answer: 1 µg/mL (≈ 1.14 µM)

Question: What about the MIC [3] of the same compound?
Answer: 1 µg/mL (≈ 1.14 µM)

Question: What does the source list for CCC[C@H](O)C[C@@H]1Cc2cc(OC)cc(OC)c2C(=O)O1?
Answer: Activity [4]: inactive; MIC [5]: inactive; Activity [6]: inactive; Activity [7]: Not Active; MIC [8]: inactive; Activity [9]: Not Active; MIC [10]: inactive; Activity [11]: inactive; Activity [12]: inactive; Activity [13]: inactive; Activity [14]: inactive; IC50 [15]: 45 µM

Question: What does the source list for CCCCCCCCCC1CCCC(=O)N[C@H]([C@@H](C)O)C(=O)N[C@@H](C)C(=O)N[C@@H](C)C(=O)N[C@@H](CCC(N)=O)C(=O)N[C@@H](Cc2ccc(O)cc2)C(=O)N[C@@H](C(C)C)C(=O)O1 (stereo partly specified) [CORDYCOMMUNIN]?
Answer: MIC [5]: inactive; Activity [6]: inactive; Activity [7]: Not Active; MIC [8]: inactive; MIC [10]: inactive; Activity [11]: inactive; MIC [14]: 15 µM (≈ 12.9 µg/mL); IC50 [15]: 45 µM

Question: What does the source list for CCC[C@H](O)C[C@@H]1Cc2cc(OC)cc(O)c2C(=O)O1?
Answer: Activity [4]: inactive; Activity [9]: Not Active; IC50 [11]: 62 µM; Activity [12]: inactive; IC50 [13]: 62 µM
